Assay [1] concerns the target T1, BRD4 BD1 (Homo sapiens, UniProt O60885).
T1 construct: made in house
Nature of the assay: AlphaScreen binding assay, BRD4 Bromodomain 1. Put shortly: (§1)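 An AlphaScreen competition format was used with His-BRD4 BD1 or BD2 and biotin-H4 K5/8/12/16-acetyl peptide, each at matched final levels of 50 nM (BD1) or 100 nM (BD2). Incubation in HEPES/NaCl buffer with 0.1% BSA and 0.01% Triton X-100 ran ≥1 h before IC50 determination.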

Assay [2] concerns the target T2, BRD4 BD2 (Homo sapiens, UniProt O60885).
T2 construct: made in house
Nature of the assay: AlphaScreen binding assay, BRD4 Bromodomain 2. Put shortly: as §1

Assay [3] has as its system MV4-11 cells. Nature of the assay: Oncology cell growth assay (3-day proliferation, CellTiter-Glo). Format: cell-based. As to conditions: Homo sapiens, MV4-11, 72 h, AML cell line MV4-11, 72 hours, compounds grouped by IC50 range, read-out: MV4-11 IC50 (inhibition of proliferation, gIC50). The procedure, abridged: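 Luminescence from CellTiter-Glo served as the growth read-out after MV4-11 cells (3000/well) were cultured with compound for 72 hours. Final concentrations spanned 10 to 0.0045 μM in 3-fold steps. gIC50 values were derived by four-parameter logistic fitting relative to DMSO and cell-free controls.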

Each structure is given as a SMILES string. Bounds are passed on as bounds.

`CC(=O)N1c2ccc(-c3cnn(C4CC4)c3)cc2N(C(=O)Oc2ccc(-n3cncn3)cc2)C[C@@H]1C` [Example I-1194]: the IC50 lay in the range of 100 to 1000 nM in assay [1], 50 to 500 nM in assay [2] and 100 to 500 nM in assay [3].

Turning to `CC(=O)N1c2ccc(-c3cnn(C4CC4)c3)cc2N(C(=O)Oc2cncc(F)c2)C[C@@H]1C` [Example I-1189], the figures for the IC50 in assay [1], in assay [2] and in assay [3] were 100 to 1000 nM, 50 to 500 nM and 100 to 500 nM, respectively.

For the compound `CC(=O)N1c2ccc(-c3ccc(S(=O)(=O)C(C)C)cc3)cc2N(C(=O)OC2CCCCC2)C[C@@H]1C` [Example I-1231], the IC50 in assay [1] is 100 to 1000 nM; in assay [2] it was 50 to 500 nM; in assay [3], 100 to 500 nM.

In the case of `CC(=O)N1c2ccc(-c3ccc(S(=O)(=O)CC(C)C)cc3)cc2N(C(=O)OC(C)C)C[C@@H]1C` [Example I-1081], the values for the IC50 in assay [1], in assay [2] and in assay [3] were 1000 to 10000 nM, 50 to 500 nM and greater than 500 nM, respectively.

Turning to `CCS(=O)(=O)c1cccc(-c2ccc3c(c2)N(C(=O)OC2CCCCC2)C[C@H](C)N3C(C)=O)c1` [Example I-1245], the IC50 in assay [1] lay within 100 to 1000 nM; in assay [2], 50 to 500 nM; in assay [3] it was 100 to 500 nM.

With `CC(=O)N1c2ccc(-c3ccc(N4CCCS4(=O)=O)cc3)cc2N(C(=O)Oc2ccccn2)C[C@@H]1C` [Example I-1324], the IC50 in assay [1] is 100 to 1000 nM; in assay [2], less than 50 nM; in assay [3] it was 100 to 500 nM.

For `CC(=O)N1c2ccc(-c3cnn(C4CC4)c3)cc2N(C(=O)Oc2cccc(F)c2)C[C@@H]1C` [Example I-502], the results for the IC50 in assay [1], in assay [2] and in assay [3] were 100 to 1000 nM, 50 to 500 nM and 100 to 500 nM, respectively.

As to `CC(=O)N1c2ccc(-c3ccc(C(=O)N4CCC(N)CC4)cc3)cc2N(C(=O)OC(C)C)C[C@@H]1C` [Example I-590], the IC50 in assay [1] lay in the range of 100 to 1000 nM; in assay [2], 50 to 500 nM; in assay [3], 100 to 500 nM.

Regarding `CC(C)OC(=O)N1C[C@H](C)N(C(=O)C2CC2)c2ccc(-c3cn(C)nn3)cc21` [Example I-482], the IC50 in assay [1] is 100 to 1000 nM; in assay [2], greater than 500 nM; in assay [3] it was greater than 500 nM.

Regarding `CC(=O)N1c2ccc(-c3ccc4c(c3)N(C)S(=O)(=O)N4)cc2N(C(=O)OC(C)C)C[C@@H]1C` [Example I-1177], the results for the IC50 in assay [1], in assay [2] and in assay [3] were 100 to 1000 nM, 50 to 500 nM and greater than 500 nM, respectively.

Turning to `CC(=O)N1c2ccc(-c3cnn(C(C)C)c3)cc2N(C(=O)C2CC2)C[C@@H]1C` [Example I-647], the IC50 in assay [1] was 100 to 1000 nM; in assay [2], 50 to 500 nM; in assay [3] it was greater than 500 nM.

With `CC(=O)N1c2ccc(-c3ccc4cnccc4c3)cc2N(C(=O)c2ccco2)C[C@@H]1C` [Example I-864], the IC50 was 100 to 1000 nM in assay [1], 50 to 500 nM in assay [2] and 100 to 500 nM in assay [3].

Turning to `CC(=O)N1c2ccc(-c3cnn(Cc4ccnn4C)c3)cc2N(C(=O)C2CC2)C[C@@H]1C` [Example I-652], the IC50 in assay [1] is 100 to 1000 nM; in assay [2] it was 50 to 500 nM; in assay [3], greater than 500 nM.

Regarding `COc1ccc(OC(=O)N2C[C@H](C)N(C(C)=O)c3ccc(-c4cnn(C5CC5)c4)cc32)cn1` [Example I-1199], the IC50 fell in the range of 100 to 1000 nM in assay [1], 50 to 500 nM in assay [2] and 100 to 500 nM in assay [3].

Consider `CNC(=O)CN(C)C(=O)c1ccc(-c2ccc3c(c2)N(C(=O)OC(C)C)C[C@H](C)N3C(C)=O)cc1` [Example I-554], for which the values for the IC50 in assay [1], in assay [2] and in assay [3] were less than 100 nM, less than 50 nM and 100 to 500 nM, respectively.

In the case of `CC(=O)N1c2ccc(-c3ccc(NS(C)(=O)=O)cc3)cc2N(C(=O)OC(C)C)C[C@@H]1C` [Example I-345], the IC50 in assay [1] lay within 100 to 1000 nM; in assay [2] it was 50 to 500 nM; in assay [3] it was 100 to 500 nM.

As to `COC(=O)N1c2ccc(-c3cnn(C(C)(C)C)c3)cc2N(C(=O)OC(C)C)C[C@@H]1C` [Example I-332], the IC50 was 100 to 1000 nM in assay [1], greater than 500 nM in assay [2] and greater than 500 nM in assay [3].

As for `CNS(=O)(=O)c1ccc(-c2ccc3c(c2)N(C(=O)OC(C)C)C[C@H](C)N3C(C)=O)cc1` [Example I-1122], the IC50 in assay [1] is 100 to 1000 nM; in assay [2] it was 50 to 500 nM; in assay [3], 100 to 500 nM.

Take `CCOC(=O)N1C[C@H](C)N(C(C)=O)c2ccc(-c3ccc(S(=O)(=O)C4CC4)cc3)cc21` [Example I-1033]: the IC50 was 100 to 1000 nM in assay [1], 50 to 500 nM in assay [2] and 100 to 500 nM in assay [3].

On to `COc1cc2c(cc1-c1ccc(S(C)(=O)=O)cc1)N(C(=O)OC(C)C)C[C@H](C)N2C(C)=O` [Example I-199, Isopropyl (S)-4-acetyl-6-methoxy-3-methyl-7-(4-(methylsulfonyl)phenyl)-3,4-dihydroquinoxaline-1(2H)-carboxylate], for which the figures for the IC50 in assay [1], in assay [2] and in assay [3] were 1000 to 10000 nM, greater than 500 nM and greater than 500 nM, respectively.

Take `CNS(=O)(=O)c1ccc(-c2ccc3c(c2)N(C(=O)c2ccco2)C[C@H](C)N3C(C)=O)cc1` [Example I-875]: the IC50 in assay [1] is 100 to 1000 nM; in assay [2], less than 50 nM; in assay [3] it was 100 to 500 nM.

In the case of `CC(=O)N1c2ccc(-c3cn(S(=O)(=O)N(C)C)cn3)cc2N(C(=O)c2ccco2)C[C@@H]1C` [Example I-410], the IC50 is 100 to 1000 nM in assay [1], less than 50 nM in assay [2] and 100 to 500 nM in assay [3].

Take `CC(=O)N1c2ccc(-c3ccc(NC(=O)N(C)C)cc3)cc2N(C(=O)c2ccco2)C[C@@H]1C` [Example I-284]: the IC50 in assay [1] is 1000 to 10000 nM; in assay [2], less than 50 nM; in assay [3], 100 to 500 nM.

In the case of `COCCn1cc(-c2ccc3c(c2)N(C(=O)c2ccco2)C[C@H](C)N3C(C)=O)cn1` [Example I-18, (S)-1-(4-(furan-2-carbonyl)-6-(1-(2-methoxyethyl)-1H-pyrazol-4-yl)-2-methyl-3,4-dihydroquinoxalin-1(2H)-yl)ethanone], the results for the IC50 in assay [1], in assay [2] and in assay [3] were 100 to 1000 nM, less than 50 nM and 100 to 500 nM, respectively.

As for `COc1ccc(-c2ccc3c(c2)N(C(=O)c2ccco2)C[C@H](C)N3C(C)=O)cc1` [Example I-807], the IC50 in assay [1] is 100 to 1000 nM; in assay [2], less than 50 nM; in assay [3], 100 to 500 nM.

Turning to `CC(=O)N1c2ccc(-c3cnn(CCC(F)(F)F)c3)cc2N(C(=O)C2CC2)C[C@@H]1C` [Example I-150, (S)-1-(4-(cyclopropanecarbonyl)-2-methyl-6-(1-(3,3,3-trifluoropropyl)-1H-pyrazol-4-yl)-3,4-dihydroquinoxalin-1(2H)-yl)ethanone], the IC50 in assay [1] was 100 to 1000 nM; in assay [2], less than 50 nM; in assay [3], greater than 500 nM.

With `CC(=O)N1c2ccc(-c3cnn(C4CC4)c3)cc2N(c2nn(C)c3cccc(F)c23)C[C@@H]1C` [Example I-183, 1-[(2S)-6-(1-cyclopropyl-1H-pyrazol-4-yl)-4-(4-fluoro-1-methyl-1H-indazol-3-yl)-2-methyl-1,2,3,4-tetrahydroquinoxalin-1-yl]ethan-1-one], the IC50 was 100 to 1000 nM in assay [1], less than 50 nM in assay [2] and 100 to 500 nM in assay [3].

For `CC(C)OC(=O)N1C[C@H](C)N(C(=O)C2CC2)c2ccc(-c3cnn(CC4CC4)c3)cc21` [Example I-316], the IC50 lay in the range of 100 to 1000 nM in assay [1], 50 to 500 nM in assay [2] and 100 to 500 nM in assay [3].

For `CC(=O)N1c2ccc(-c3cnn(C4CC4)c3)cc2N(C(=O)OC(C)C)C[C@@H]1C` [Example I-22, (S)-isopropyl 4-acetyl-7-(1-cyclopropyl-1H-pyrazol-4-yl)-3-methyl-3,4-dihydroquinoxaline-1(2H)-carboxylate], the IC50 is 100 to 1000 nM in assay [1], 50 to 500 nM in assay [2] and less than 100 nM in assay [3].

As for `COC(=O)N1c2ccc(-c3ccc(C(=O)N4CC[C@@H](O)C4)cc3)cc2N(C(=O)OC(C)C)C[C@@H]1C` [Example I-577], the results for the IC50 in assay [1], in assay [2] and in assay [3] were 100 to 1000 nM, 50 to 500 nM and greater than 500 nM, respectively.

Regarding `CCOC(=O)N1C[C@H](C)N(C(C)=O)c2ccc(-c3ccc(S(=O)(=O)CC)cc3)cc21` [Example I-1029], the IC50 in assay [1] was in the range of 1000 to 10000 nM; in assay [2] it was 50 to 500 nM; in assay [3], 100 to 500 nM.

Regarding `COC(=O)N1c2ccc(-c3cnn(CC(=O)N(C)C4CC4)c3)cc2N(C(=O)OC(C)C)C[C@@H]1C` [Example I-625], the IC50 in assay [1] was 100 to 1000 nM; in assay [2], 50 to 500 nM; in assay [3], greater than 500 nM.

For `CNS(=O)(=O)c1cccc(-c2ccc3c(c2)N(C(=O)C2CC2)C[C@H](C)N3C(C)=O)c1` [Example I-1104], the IC50 in assay [1] was 1000 to 10000 nM; in assay [2], 50 to 500 nM; in assay [3], 100 to 500 nM.

On to `CC(=O)N1c2ccc(-c3ccc(OCCS(C)(=O)=O)cc3)cc2N(C(=O)OC2CCOCC2)C[C@@H]1C` [Example I-1252], for which the IC50 in assay [1] lay in the range of 100 to 1000 nM; in assay [2], 50 to 500 nM; in assay [3], 100 to 500 nM.

As for `CC(=O)N1c2ccc(-c3cnn(C4CC4)c3)cc2N(C(=O)Oc2ccc(C)cc2)C[C@@H]1C` [Example I-264], the IC50 is 100 to 1000 nM in assay [1], less than 50 nM in assay [2] and less than 100 nM in assay [3].

Turning to `CC(=O)N1c2ccc(-c3cnn(CCC#N)c3)cc2N(C(=O)Oc2ccccn2)C[C@@H]1C` [Example I-1326], the IC50 in assay [1] lay in the range of 100 to 1000 nM; in assay [2], 50 to 500 nM; in assay [3], 100 to 500 nM.

For `COC(=O)N1c2ccc(-c3ccc(N4CCS(=O)(=O)CC4)cc3)cc2N(C(=O)OC(C)C)C[C@@H]1C` [Example I-483], the figures for the IC50 in assay [1], in assay [2] and in assay [3] were 100 to 1000 nM, 50 to 500 nM and greater than 500 nM, respectively.
